# Tests used:
# PD-1 = test: Immunophenotyping of PBMC (FACS); assay type: in vivo, human; conditions: for decrease in PD-1 positive CD4 T cells compared to placebo / decrease in PD-1 positive CD8 T cells compared to placebo: adjusted for baseline
# [1] = system: H1N1 A/California/07/2009, H3N2 A/Victoria/210/2009, B/Brisbane/60/2008; test: Serologic response to 2012 seasonal influenza vaccine (HI GMT ratio, primary endpoint); assay type: in vivo, human; conditions: for primary endpoint (≥1.2-fold GMT increase relative to placebo in 2 of 3 strains): ITT population
# Procedure: From December 2011 to April 2012, 218 elderly volunteers were enrolled in a randomized, observer-blind, placebo-controlled trial. The subjects were randomized to treatment arms using a validated automated randomization system with a ratio of RAD001 to placebo of 5:2 in each treatment arm. The treatment arms were: • RAD001 0.5 mg daily or placebo • RAD001 5 mg weekly or placebo • RAD001 20 mg weekly or placebo
# The trial was observer-blind because the placebo in the RAD001 0.5 mg daily and 20 mg weekly cohorts differed slightly from the RAD001 tablets in those cohorts. […] The treatment duration for all cohorts was 6 weeks during which time subjects underwent safety evaluations in the clinic every 2 weeks. After subjects had been dosed for 4 weeks, RAD001 steady state levels were measured pre-dose and at one hour post dose. After completing the 6 week course of study drug, subjects were given a 2 week drug free break to reverse any possible RAD001-induced immunosuppression, and then were given a 2012 seasonal influenza vaccination (Agrippal®, Novartis Vaccines and Diagnostics, Siena, Italy) containing the strains H1N1 A/California/07/2009, H3N2 A/Victoria/210/2009, B/Brisbane/60/2008. Four weeks after influenza vaccination, subjects had serum collected for influenza titer measurements. Antibody titers to the 3 influenza vaccine strains as well as to 2 heterologous strains (A/H1N1 strain A/New Jersey/8/76 and A/H3N2 strain A/Victoria/361/11) were measured by standard hemagglutination inhibition assay (Kendal, A P et al. (1982) Concepts and procedures for laboratory-based influenza surveillance. Atlanta: Centers for Disease Control and Prevention B17-B35). Levels of IgG and IgM specific for the A/H1N1/California/07/2009 were measured in serum samples taken before and 4 weeks after influenza vaccination as described previously (Spensieri, F. et al. (2013) Proc. Natl. Acad. Sci. USA 110:14330-14335). Results were expressed as fluorescence intensity.
# The primary analysis of geometric mean titer ratios was done using a normal Bayesian regression model with non-informative priors. This model was fitted to each antibody titer on the log scale. The primary outcome in each model was the Day 84 measurement. The Day 63 measurement was included in the outcome vector. The model fitted using SAS 9.2 proc mixed with the prior statement. The covariance structure of the matrix was considered as unstructured (option type=UN). A flat prior was used. For the secondary analysis of seroconversion rates, logistic regression was used.
# The ability of RAD001 to improve immune function in elderly volunteers was evaluated by measuring the serologic response to the 2012 seasonal influenza vaccine. […]
# [2] = system: A/H1N1 strain A/New Jersey/8/76 and A/H3N2 strain A/Victoria/361/11; set-up: species or system human; conditions: in vivo
# [3] = Adverse event and safety assessment of RAD001 in elderly volunteers; assay type: in vivo, human; conditions: for Incidence of treatment-related AE: Blood cholesterol increased / Incidence of treatment-related AE: Conjunctivitis / Incidence of treatment-related AE: Diarrhea / Incidence of treatment-related AE: Dry mouth / Incidence of treatment-related AE: Dyspepsia / Incidence of treatment-related AE: Erythema / Incidence of treatment-related AE: Fatigue / Incidence of treatment-related AE: Headache / Incidence of treatment-related AE: Insomnia / Incidence of treatment-related AE: Limb discomfort / Incidence of treatment-related AE: Low density lipoprotein increased / Incidence of treatment-related AE: Mouth ulceration / Incidence of treatment-related AE: Mucosal inflammation / Incidence of treatment-related AE: Neutropenia / Incidence of treatment-related AE: Oral pain / Incidence of treatment-related AE: Paresthesia oral / Incidence of treatment-related AE: Pruritus / Incidence of treatment-related AE: Stomatitis / Incidence of treatment-related AE: Thrombocytopenia / Incidence of treatment-related AE: Tongue ulceration / Incidence of treatment-related AE: Urinary tract infection / Treatment-related AEs: Patients with AE(s) / Treatment-related AEs: Total AE(s): N = 53
# Procedure: Adverse event assessment and blood collection for hematologic and biochemical safety assessments were performed during study visits. Adverse event information was also collected in diaries that subjects filled out at home during the 6 weeks they were on study drug. Data on all adverse events were collected from the time of informed consent until 30 days after the last study visit. Events were classified by the investigators as mild, moderate or severe.
smiles,measurement,setting,value
"CO[C@H]1C[C@@H]2CC[C@@H](C)[C@@](O)(O2)C(=O)C(=O)N2CCCC[C@H]2C(=O)O[C@H]([C@H](C)C[C@@H]2CC[C@@H](OCCO)[C@H](OC)C2)CC(=O)[C@H](C)/C=C(\C)[C@@H](O)[C@@H](OC)C(=O)[C@H](C)C[C@H](C)/C=C/C=C/C=C/1C [RAD001, (1R,9S,12S,15R,16E,18R,19R,21R,23 S,24E,26E,28E,30S,32S,35R)-1,18-dihydroxy-12-{(1R)-2-[(1 S,3R,4R)-4-(2-hydroxyethoxy)-3-methoxycyclohexyl]-1-methylethyl}-19,30-dimethoxy-15,17,21,23,29,35-hexamethyl-11,36-dioxa-4-aza-tricyclo[30.3.1.04,9]hexatriaconta-16,24,26,28-tetraene-2,3,10,14,20-pentaone]",percentage of PD-1 positive CD4 and CD8 cells compared to placebo cohorts,PD-1; in vivo,lower in the RAD001 as compared to placebo cohorts
same,decrease in PD-1 positive CD4 T cells compared to placebo,"PD-1; week 6, pooled cohort (n=84)",30.2%
same,decrease in PD-1 positive CD8 T cells compared to placebo,"PD-1; week 6, pooled cohort (n=84)",37.4%
same,decrease in PD-1 positive CD4 T cells compared to placebo,"PD-1; week 12, pooled cohort",32.7%
same,decrease in PD-1 positive CD8 T cells compared to placebo,"PD-1; week 12, pooled cohort",41.4%
same,change in PD-1-positive CD8 T cells compared to placebo,"PD-1; week 12, 0.5 mg/Day, 5 mg/Week and 20 mg/Week cohorts",−43.3-−38.5%
same,primary endpoint (≥1.2-fold GMT increase relative to placebo in 2 of 3 strains),[1]; 0.5 mg daily or 5 mg weekly,met the GMT primary endpoint
same,primary endpoint (≥1.2-fold GMT increase relative to placebo in 2 of 3 strains),[1]; 20 mg weekly,but not higher dose (20 mg weekly) cohort met the primary endpoint
same,increase in titers in subjects with low baseline influenza titers (≤1:40),[1]; compared with the ITT population,greater RAD001-associated increase in titers
same,RAD001 concentration versus increase in titer,[1]; concentration 1 hour post dose after 4 weeks,inverse exposure/response relationship
same,increase in HI GMT ratios for the heterologous strains,[2],higher in the RAD001 as compared to placebo cohorts
same,seroconversion rates for the heterologous strains,[2],higher in the RAD001 as compared to placebo cohorts
same,Incidence of treatment-related AE: Blood cholesterol increased,[3]; 0.5 mg daily,2 (3.8%) n (%)
same,Incidence of treatment-related AE: Conjunctivitis,[3]; 0.5 mg daily,0 n (%)
same,Incidence of treatment-related AE: Diarrhea,[3]; 0.5 mg daily,1 (1.9%) n (%)
same,Incidence of treatment-related AE: Dry mouth,[3]; 0.5 mg daily,0 n (%)
same,Incidence of treatment-related AE: Dyspepsia,[3]; 0.5 mg daily,0 n (%)
same,Incidence of treatment-related AE: Erythema,[3]; 0.5 mg daily,0 n (%)
same,Incidence of treatment-related AE: Fatigue,[3]; 0.5 mg daily,0 n (%)
same,Incidence of treatment-related AE: Headache,[3]; 0.5 mg daily,0 n (%)
same,Incidence of treatment-related AE: Insomnia,[3]; 0.5 mg daily,1 (1.9%) n (%)
same,Incidence of treatment-related AE: Limb discomfort,[3]; 0.5 mg daily,0 n (%)
same,Incidence of treatment-related AE: Low density lipoprotein increased,[3]; 0.5 mg daily,2 (3.8%) n (%)
same,Incidence of treatment-related AE: Mouth ulceration,[3]; 0.5 mg daily,6 (11.3%) n (%)
same,Incidence of treatment-related AE: Mucosal inflammation,[3]; 0.5 mg daily,0 n (%)
same,Incidence of treatment-related AE: Neutropenia,[3]; 0.5 mg daily,0 n (%)
same,Incidence of treatment-related AE: Oral pain,[3]; 0.5 mg daily,0 n (%)
same,Incidence of treatment-related AE: Paresthesia oral,[3]; 0.5 mg daily,2 (3.8%) n (%)
same,Incidence of treatment-related AE: Pruritus,[3]; 0.5 mg daily,0 n (%)
same,Incidence of treatment-related AE: Stomatitis,[3]; 0.5 mg daily,0 n (%)
same,Incidence of treatment-related AE: Thrombocytopenia,[3]; 0.5 mg daily,0 n (%)
same,Incidence of treatment-related AE: Tongue ulceration,[3]; 0.5 mg daily,3 (5.7%) n (%)
same,Incidence of treatment-related AE: Urinary tract infection,[3]; 0.5 mg daily,0 n (%)
same,Treatment-related AEs: Patients with AE(s),[3]; 0.5 mg daily,22 (41.5%) n (%)
same,Treatment-related AEs: Total AE(s),[3]; 0.5 mg daily,35
same,Incidence of treatment-related AE: Blood cholesterol increased,[3]; 5 mg weekly,2 (3.8%) n (%)
same,Incidence of treatment-related AE: Conjunctivitis,[3]; 5 mg weekly,2 (3.8%) n (%)
same,Incidence of treatment-related AE: Diarrhea,[3]; 5 mg weekly,4 (7.5%) n (%)
same,Incidence of treatment-related AE: Dry mouth,[3]; 5 mg weekly,0 n (%)
same,Incidence of treatment-related AE: Dyspepsia,[3]; 5 mg weekly,3 (5.7%) n (%)
same,Incidence of treatment-related AE: Erythema,[3]; 5 mg weekly,2 (3.8%) n (%)
same,Incidence of treatment-related AE: Fatigue,[3]; 5 mg weekly,2 (3.8%) n (%)
same,Incidence of treatment-related AE: Headache,[3]; 5 mg weekly,2 (3.8%) n (%)
same,Incidence of treatment-related AE: Insomnia,[3]; 5 mg weekly,2 (3.8%) n (%)
same,Incidence of treatment-related AE: Limb discomfort,[3]; 5 mg weekly,2 (3.8%) n (%)
same,Incidence of treatment-related AE: Low density lipoprotein increased,[3]; 5 mg weekly,1 (1.9%) n (%)
same,Incidence of treatment-related AE: Mouth ulceration,[3]; 5 mg weekly,2 (3.8%) n (%)
same,Incidence of treatment-related AE: Mucosal inflammation,[3]; 5 mg weekly,0 n (%)
same,Incidence of treatment-related AE: Neutropenia,[3]; 5 mg weekly,0 n (%)
same,Incidence of treatment-related AE: Oral pain,[3]; 5 mg weekly,2 (3.8%) n (%)
same,Incidence of treatment-related AE: Paresthesia oral,[3]; 5 mg weekly,0 n (%)
same,Incidence of treatment-related AE: Pruritus,[3]; 5 mg weekly,2 (3.8%) n (%)
same,Incidence of treatment-related AE: Stomatitis,[3]; 5 mg weekly,0 n (%)
same,Incidence of treatment-related AE: Thrombocytopenia,[3]; 5 mg weekly,0 n (%)
same,Incidence of treatment-related AE: Tongue ulceration,[3]; 5 mg weekly,1 (1.9%) n (%)
same,Incidence of treatment-related AE: Urinary tract infection,[3]; 5 mg weekly,0 n (%)
same,Treatment-related AEs: Patients with AE(s),[3]; 5 mg weekly,20 (37.7%) n (%)
same,Treatment-related AEs: Total AE(s),[3]; 5 mg weekly,46
same,Incidence of treatment-related AE: Blood cholesterol increased,[3]; 20 mg weekly,2 (3.8%) n (%)
same,Incidence of treatment-related AE: Conjunctivitis,[3]; 20 mg weekly,0 n (%)
same,Incidence of treatment-related AE: Diarrhea,[3]; 20 mg weekly,1 (1.9%) n (%)
same,Incidence of treatment-related AE: Dry mouth,[3]; 20 mg weekly,2 (3.8%) n (%)
same,Incidence of treatment-related AE: Dyspepsia,[3]; 20 mg weekly,2 (3.8%) n (%)
same,Incidence of treatment-related AE: Erythema,[3]; 20 mg weekly,0 n (%)
same,Incidence of treatment-related AE: Fatigue,[3]; 20 mg weekly,4 (7.5%) n (%)
same,Incidence of treatment-related AE: Headache,[3]; 20 mg weekly,9 (17.0%) n (%)
same,Incidence of treatment-related AE: Insomnia,[3]; 20 mg weekly,1 (1.9%) n (%)
same,Incidence of treatment-related AE: Limb discomfort,[3]; 20 mg weekly,0 n (%)
same,Incidence of treatment-related AE: Low density lipoprotein increased,[3]; 20 mg weekly,2 (3.8%) n (%)
same,Incidence of treatment-related AE: Mouth ulceration,[3]; 20 mg weekly,9 (17.0%) n (%)
same,Incidence of treatment-related AE: Mucosal inflammation,[3]; 20 mg weekly,2 (3.8%) n (%)
same,Incidence of treatment-related AE: Neutropenia,[3]; 20 mg weekly,3 (5.7%) n (%)
same,Incidence of treatment-related AE: Oral pain,[3]; 20 mg weekly,1 (1.9%) n (%)
same,Incidence of treatment-related AE: Paresthesia oral,[3]; 20 mg weekly,0 n (%)
same,Incidence of treatment-related AE: Pruritus,[3]; 20 mg weekly,1 (1.9%) n (%)
same,Incidence of treatment-related AE: Stomatitis,[3]; 20 mg weekly,2 (3.8%) n (%)
same,Incidence of treatment-related AE: Thrombocytopenia,[3]; 20 mg weekly,2 (3.8%) n (%)
same,Incidence of treatment-related AE: Tongue ulceration,[3]; 20 mg weekly,0 n (%)
same,Incidence of treatment-related AE: Urinary tract infection,[3]; 20 mg weekly,2 (3.8%) n (%)
same,Treatment-related AEs: Patients with AE(s),[3]; 20 mg weekly,27 (50.9%) n (%)
same,Treatment-related AEs: Total AE(s),[3]; 20 mg weekly,109
same,deaths during the study,"[3]; human, in vivo",No deaths
same,most common related AE,[3]; majority of mild severity,mouth ulcer
same,severe AEs assessed as related,"[3]; mouth ulcers, 20 mg weekly",Only one severe AE
same,tolerability,[3]; particularly 0.5 mg daily and 5 mg weekly,well tolerated
same,"serious adverse events (SAEs), relation to drug","[3]; three subjects, four SAEs",assessed as unrelated to RAD001

# Source: US11999794B2, “Human mesothelin chimeric antigen receptors and uses thereof” (Novartis AG, priority 2013, dated 2024)
